This note sets out measurements from US4812573A, “Pharmaceutically active compounds” (SmithKline & French Laboratories, Ltd., priority 1986, dated 1989).

Where a name gives a salt, the structure may show the parent alone.

One assay concerns human washed platelets. In words: human platelet aggregation assay (submaximal U46619 induced aggregation). It counts as cell-based. The source says:
As indicated above, compounds of the formula (I) have biological activity that is indicative of an ability to antagonise TXA2 receptors.
(b) human platelet aggregation assay.
HUMAN PLATELET AGGREGATION ASSAY
The aggregation assay used human washed platelets and was based on that described by Born (Nature, 1962, vol. 194, 927-929). The assay determines a concentration of test compound which inhibits a submaximal U46619 induced aggregation by 50% (IC50). U46619 is the thromboxane A2 -agonist (9,11-dideoxy-11α,9α-epoxymethanoprostaglandin F2α).

A further assay addresses T1, TXA2 receptors (Homo sapiens, UniProt P21731).
T1 construct: endogenous in cells; host or cells: human platelets
T1 sequence (P21731 1-343): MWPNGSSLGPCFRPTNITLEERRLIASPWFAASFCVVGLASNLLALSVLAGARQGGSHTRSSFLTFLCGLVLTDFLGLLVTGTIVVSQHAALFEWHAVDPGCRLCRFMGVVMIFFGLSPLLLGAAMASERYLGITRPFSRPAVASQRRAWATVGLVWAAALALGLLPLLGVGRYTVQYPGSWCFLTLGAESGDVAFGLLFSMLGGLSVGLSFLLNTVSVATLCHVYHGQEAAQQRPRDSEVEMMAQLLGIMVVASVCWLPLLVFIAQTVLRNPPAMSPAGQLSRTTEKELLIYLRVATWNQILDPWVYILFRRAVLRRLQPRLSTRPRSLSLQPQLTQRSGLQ
Briefly: human platelet binding assay ([^125 I]PTA-OH receptor ligand). As to conditions: 50% inhibition of specific [^125 I]PTA-OH binding. The text has this: As indicated above, compounds of the formula (I) have biological activity that is indicative of an ability to antagonise TXA2 receptors. […] Exp. Ther., 1985, 235(3), 729-734 where [^125 I]PTA-OH was used as the receptor ligand. The IC50 values represent the concentration which produces a 50% inhibition of specific [^125 I]PTA-OH binding.

For `O=C(O)CCN1CCc2ccc(S(=O)(=O)Nc3cccc(Cl)c3)cc2C1` [Example 1, 3-[7-(3-Chlorophenylsulphamoyl)-1,2,3,4-tetrahydroisoquinolin-2-yl]propionic acid], the 50% inhibitory concentration (IC50) (as a rule, the concentration needed to halve the response being measured) is 103 µM in the assay with human washed platelets and 49.3 µM on TXA2 receptors. In the same order, the values of `O=C(O)CCCN1CCc2ccc(S(=O)(=O)Nc3cccc(Cl)c3)cc2C1` [Example 2, 4-[7-(3-Chlorophenylsulphamoyl)-1,2,3,4-tetrahydroisoquinolin-2-yl]butyric acid] are 9.3 µM and 1.02 µM. With `CCOC(=O)CCCCN1CCc2ccc(S(=O)(=O)Nc3cccc(Cl)c3)cc2C1` [Example 3a, ethyl-5-[7-(3-chlorophenylsulphamoyl)-1,2,3,4-tetrahydroisoquinolin-2-yl]valerate hydrochloride], the IC50 on TXA2 receptors is 3.1 µM. Turning to `O=C(O)CCCCN1CCc2ccc(S(=O)(=O)Nc3cccc(Cl)c3)cc2C1` [Example 3b, 5-[7-(3-Chlorophenylsulphamoyl)-1,2,3,4-tetrahydroisoquinolin-2-yl]valeric acid], the half-maximal inhibitory concentration (IC50) in the assay on human washed platelets stood at 3.9 µM; at TXA2 receptors, 1.06 µM. In the same order, the values of `O=C(O)CCCCCN1CCc2ccc(S(=O)(=O)Nc3cccc(Cl)c3)cc2C1` [Example 4, 6-[7-(3-Chlorophenylsulphamoyl)-1,2,3,4-tetrahydroisoquinolin-2-yl]hexanoicacid] are 34 µM and 3.8 µM. On TXA2 receptors, `O=C(O)CCCN1CCc2ccc(S(=O)(=O)Nc3ccccc3)cc2C1` [Example 5, 4-(7-Phenylsulphamoyl-1,2,3,4-tetrahydroisoquinolin-2-yl)butyric acid] returned an IC50 of 3.75 µM. On to `O=C(O)CCCCN1CCc2ccc(S(=O)(=O)Nc3ccccc3)cc2C1` [Example 6, 5-(7-Phenylsulphamoyl-1,2,3,4-tetrahydroisoquinolin-2-yl)valeric acid], for which, at TXA2 receptors, the 50% inhibitory concentration (IC50) was found to be 9.2 µM.

In the case of `O=C(O)CCCN1CCc2ccc(S(=O)(=O)Nc3cccc(C(F)(F)F)c3)cc2C1` [Example 7, 4-[7-(3-Trifluoromethylphenylsulphamoyl)-1,2,3,4-tetrahydroisoquinolin-2-yl]butyric acid], on TXA2 receptors, the concentration for half-maximal inhibition (IC50) amounted to 2.8 µM. Same read-out and setting: then `O=C(O)C#CCN1CCc2ccc(S(=O)(=O)Nc3cccc(Cl)c3)cc2C1` [Example 8, Sodium 4-[7-(3-chlorophenylsulphamoyl)-1,2,3,4-tetrahydroisoquinolin-2-yl]but-2-ynoate], with 0.7 µM. Same read-out and setting: then `O=C(O)CCCN1CCc2c(cccc2NS(=O)(=O)c2ccccc2)C1` [Example 9, 4-[5-(Phenylsulphonamido)-1,2,3,4-tetrahydroisoquinolin-2-yl]butyric acid hydrochloride], with 79 µM; and `O=C(O)CCCCN1CCc2c(cccc2NS(=O)(=O)c2ccccc2)C1` [Example 10, 5-[(5-Phenylsulphonamido)-1,2,3,4-tetrahydroisoquinolin-2-yl]valeric acid hydrochloride], with 134 µM; and `O=C(O)CCCN1CCc2cc(NS(=O)(=O)c3ccccc3)ccc2C1` [Example 11, 4-[6-Phenylsulphonamido-1,2,3,4-tetrahydroisoquinolin-2-yl]butyric acid], with 232 µM. Take `O=C(O)CCCCN1CCc2ccc(NS(=O)(=O)c3ccccc3)cc2C1` [Example 12, 5-[7-Phenylsulphonamido-1,2,3,4-tetrahydroisoquiolin-2-yl]valeric acid]: the 50% inhibitory concentration (IC50) on TXA2 receptors amounted to 40.7 µM. The compound `O=C(O)CN1CCc2ccc(NS(=O)(=O)c3ccccc3)cc2C1` [Example 13, 2-[(7-Phenylsulphonamido)-1,2,3,4-tetrahydroisiquinolin-2-yl]-acetic acid hydrochloride] displayed an IC50 on TXA2 receptors of 84 µM. `CCCCC(C(=O)O)N1CCc2ccc(NS(=O)(=O)c3ccccc3)cc2C1` (centres unmarked) [Example 14, 2-[(7-Phenylsulphonamido)-1,2,3,4-tetrahydroisoquinolin-2-yl]-caproic acid hydrochloride] returned an IC50 at TXA2 receptors of 98 µM. In the case of `O=C(O)CCCN1CCc2ccc(S(=O)(=O)Nc3ccc(Cl)cc3)cc2C1` [Example 15, 4-[7-(4-Chlorophenylsulphamoyl)-1,2,3,4-tetrahydroisoquinolin-2-yl]butyric acid], at TXA2 receptors, the IC50 amounted to 7.8 µM.
